Source: PubChem BioAssay AID192 (DTP/NCI, 2004)
Where “and” joins values, the source holds several entries; their conditions need not be identical. Equal values may be shown once. Toxic doses and inconclusive results are not listed. The calls were made as follows: active = survival T/C of 150% or more; inactive = T/C below 125% in these data.

Test system: BDF1 mice, B16 melanoma ip, median survival T/C
Experiment: NCI In Vivo Anticancer Drug Screen. Data for tumor model B16 Melanoma (intraperitoneal) in B6D2F1 (BDF1) mice
Conditions: endpoint: median survival time, higher = longer survival
Method in brief: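 Read-out: survival or tumor size, given as treated/control ratio. Controls received vehicle only; animals bore transplantable tumors.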

[1] = dose: 100.0 mg/kg/injection, schedule: Q01DX009 (ip), vehicle: Klucel (hydroxypropylcellulose) (HPC)
[2] = dose: 200.0 mg/kg/injection, schedule: Q01DX009 (ip), vehicle: Klucel (hydroxypropylcellulose) (HPC)
[3] = dose: 50.0 mg/kg/injection, schedule: Q01DX009 (ip), vehicle: Klucel (hydroxypropylcellulose) (HPC)
[4] = dose: 400.0 mg/kg/injection, schedule: Q01DX009 (ip), vehicle: Klucel (hydroxypropylcellulose) (HPC)
[5] = dose: 50.0 mg/kg/injection, schedule: Q01DX009 (ip), vehicle: saline with Tween-80
[6] = dose: 100.0 mg/kg/injection, schedule: Q01DX009 (ip), vehicle: saline with Tween-80
[7] = dose: 200.0 mg/kg/injection, schedule: Q01DX009 (ip), vehicle: saline with Tween-80
[8] = dose: 25.0 mg/kg/injection, schedule: Q01DX009 (ip), vehicle: saline with Tween-80
[9] = dose: 6.25 mg/kg/injection, schedule: Q01DX009 (ip), vehicle: saline with Tween-80
[10] = dose: 6.25 mg/kg/injection, schedule: Q04DX003 (ip), vehicle: saline with Tween-80
[11] = dose: 12.5 mg/kg/injection, schedule: Q01DX009 (ip), vehicle: saline with Tween-80
[12] = dose: 12.5 mg/kg/injection, schedule: Q04DX003 (ip), vehicle: saline with Tween-80
[13] = dose: 400.0 mg/kg/injection, schedule: Q01DX009 (ip), vehicle: saline with Tween-80

Measured: T/C

Nc1nc(Cl)c2[nH]cnc2n1
inactive: dose: 0.09 mg/kg/injection, schedule: Q01DX009 (ip), vehicle: other 114 % of control | dose: 0.19 mg/kg/injection, schedule: Q01DX009 (ip), vehicle: other 113 % of control | dose: 0.38 mg/kg/injection, schedule: Q01DX009 (ip), vehicle: other 105 % of control | dose: 0.75 mg/kg/injection, schedule: Q01DX009 (ip), vehicle: other 88 % of control and 111 % of control | dose: 1.5 mg/kg/injection, schedule: Q01DX009 (ip), vehicle: other 110 % of control | dose: 3.0 mg/kg/injection, schedule: Q01DX009 (ip), vehicle: other 101 % of control and 108 % of control | dose: 6.0 mg/kg/injection, schedule: Q01DX009 (ip), vehicle: other 89 % of control | dose: 50.0 mg/kg/injection, schedule: Q01DX009 (ip), vehicle: other 93 % of control

Cc1cc2oc(=O)c3c(c2c(O)c1CN1CCOCC1)CCCC3
inactive: dose: 64.0 mg/kg/injection, schedule: Q01DX009 (ip), vehicle: Klucel (hydroxypropylcellulose) (HPC) 103 % of control | dose: 128.0 mg/kg/injection, schedule: Q01DX009 (ip), vehicle: Klucel (hydroxypropylcellulose) (HPC) 98 % of control | dose: 256.0 mg/kg/injection, schedule: Q01DX009 (ip), vehicle: Klucel (hydroxypropylcellulose) (HPC) 108 % of control

COC(=O)C12Oc3ccc(-c4ccc5c(c4O)C(O)=C4C(=O)CC(C)C(O)C4(C(=O)OC)O5)c(O)c3C(O)=C1C(=O)CC(C)C2O (stereo not given)
inactive: dose: 0.15 mg/kg/injection, schedule: Q01DX009 (ip), vehicle: saline with Tween-80 98 % of control | dose: 0.31 mg/kg/injection, schedule: Q01DX009 (ip), vehicle: saline with Tween-80 93 % of control | dose: 0.62 mg/kg/injection, schedule: Q01DX009 (ip), vehicle: saline with Tween-80 104 % of control | dose: 1.25 mg/kg/injection, schedule: Q01DX009 (ip), vehicle: saline with Tween-80 95 % of control

Brc1ccc(C[N+]23CN4CN(CN(C4)C2)C3)cc1
inactive: [1] 121 % of control | [2] 115 % of control

O=[N+]([O-])c1cccnc1Oc1cccc(C(F)(F)F)c1
inactive: dose: 135.0 mg/kg/injection, schedule: Q04DX003 (ip), vehicle: Klucel (hydroxypropylcellulose) (HPC) 110 % of control | dose: 195.0 mg/kg/injection, schedule: Q04DX003 (ip), vehicle: Klucel (hydroxypropylcellulose) (HPC) 115 % of control | dose: 450.0 mg/kg/injection, schedule: Q04DX003 (ip), vehicle: Klucel (hydroxypropylcellulose) (HPC) 100 % of control

Cc1ccc(S(=O)(=O)NC(CSSCC(NS(=O)(=O)c2ccc(C)cc2)C(=O)OC(C)(C)C)C(=O)OC(C)(C)C)cc1 (stereo not given)
inactive: [3] 107 % of control

COc1cccc2c1C(=O)c1c(O)c3c(c(O)c1C2=O)C[C@@](O)(/C(CO)=N/NC(=O)c1ccc(Cl)c(Cl)c1)C[C@@H]3OC1CC(NC(=S)Nc2ccc(F)cc2)C(O)C(C)O1 (stereo not given in full)
inactive: dose: 0.4 mg/kg/injection, schedule: Q01DX009 (ip), vehicle: water 101 % of control | dose: 0.8 mg/kg/injection, schedule: Q01DX009 (ip), vehicle: water 112 % of control | dose: 1.6 mg/kg/injection, schedule: Q01DX009 (ip), vehicle: water 111 % of control | dose: 3.2 mg/kg/injection, schedule: Q01DX009 (ip), vehicle: water 106 % of control

Cc1cccc(C)c1NC(=O)c1cccc(C(=O)Nc2c(C)cccc2C)c1
inactive: [1] 100 % of control | [2] 94 % of control | [4] 91 % of control

Cc1cccc(NC(=O)CCl)c1
inactive: dose: 50.0 mg/kg/injection, schedule: Q01DX009 (ip), vehicle: carboxymethylcellulose (CMC) 109 % of control | dose: 100.0 mg/kg/injection, schedule: Q01DX009 (ip), vehicle: carboxymethylcellulose (CMC) 101 % of control

CCCCCCCCCCN1CCC(N2CCCCC2)CC1
inactive: dose: 12.5 mg/kg/injection, schedule: Q01DX009 (ip), vehicle: saline 91 % of control | dose: 25.0 mg/kg/injection, schedule: Q01DX009 (ip), vehicle: saline 93 % of control | dose: 50.0 mg/kg/injection, schedule: Q01DX009 (ip), vehicle: saline 98 % of control | dose: 100.0 mg/kg/injection, schedule: Q01DX009 (ip), vehicle: saline 87 % of control

Cc1ccc(CNc2cccc([N+](=O)[O-])c2)cc1
inactive: [1] 100 % of control | [2] 97 % of control

CNc1nc(N)nc(Nc2ccc(I)cc2)c1N=O
inactive: dose: 25.0 mg/kg/injection, schedule: Q01DX009 (ip), vehicle: Klucel (hydroxypropylcellulose) (HPC) 99 % of control | [3] 90 % of control | [5] 94 % of control | [1] 96 % of control | [6] 94 % of control | [7] 94 % of control | [4] 123 % of control

O=[N+]([O-])c1ccc(NCc2ccccc2)nc1
inactive: [8] 100 % of control | [5] 100 % of control | [6] 121 % of control | [7] 105 % of control

COc1ccc(N=C=S)cc1N=C=S
inactive: [9] 102 % of control | [10] 105 % of control | [11] 92 % of control | [12] 115 % of control | [8] 100 % of control | dose: 25.0 mg/kg/injection, schedule: Q04DX003 (ip), vehicle: saline with Tween-80 113 % of control

CC(C)(C)n1cc(C(=O)c2ccccc2)cc1-c1ccccc1
inactive: dose: 100.0 mg/kg/injection, schedule: Q04DX003 (ip), vehicle: saline with Tween-80 97 % of control | dose: 200.0 mg/kg/injection, schedule: Q04DX003 (ip), vehicle: saline with Tween-80 100 % of control | dose: 400.0 mg/kg/injection, schedule: Q04DX003 (ip), vehicle: saline with Tween-80 100 % of control

Cc1ncc([N+](=O)[O-])n1CCSC(N)=O
inactive: [11] 97 % of control and 99 % of control | [8] 95 % of control and 102 % of control | [5] 101 % of control | [6] 97 % of control and 101 % of control | [7] 91 % of control and 96 % of control | [13] 92 % of control

Cc1cc(N(CCCl)CCCl)ccc1C=Nc1cccnc1
inactive: [5] 119 % of control | [6] 124 % of control

O=C(OC1COC(n2c(=O)oc3ccc(F)cc32)C(OC(=O)c2ccccc2)C1OC(=O)c1ccccc1)c1ccccc1 (stereo not given)
inactive: [5] 93 % of control | [1] 89 % of control | [6] 92 % of control | [2] 86 % of control | [7] 107 % of control | [13] 90 % of control

COC(=O)C1=CO[C@@H](C)[C@@H]2Cn3ccc4c5ccccc5nc-4c3C[C@H]12
inactive: [8] 94 % of control | [5] 89 % of control

CC1(C)N=C(N)N=C(N)N1c1cccc(CCCCOc2ccccc2)c1
inactive: dose: 3.13 mg/kg/injection, schedule: Q01DX009 (ip), vehicle: saline with Tween-80 95 % of control | dose: 3.13 mg/kg/injection, schedule: Q04DX003 (ip), vehicle: saline with Tween-80 109 % of control | [9] 102 % of control | [10] 109 % of control | [11] 102 % of control | [12] 107 % of control

CC(O)C(NC(=O)OC(C)(C)C)C(=O)O (stereo not given)
inactive: dose: 200.0 mg/kg/injection, schedule: Q01DX009 (ip), vehicle: saline 105 % of control | dose: 400.0 mg/kg/injection, schedule: Q01DX009 (ip), vehicle: saline 93 % of control

CCCCCCCCCCCCCCCC(=O)N(CCC#N)CCCCCCCCCN(CCC#N)C(=O)CCCCCCCCCCCCCCC
inactive: dose: 12.5 mg/kg/injection, schedule: Q04DX003 (ip), vehicle: Klucel (hydroxypropylcellulose) (HPC) 88 % of control | dose: 25.0 mg/kg/injection, schedule: Q04DX003 (ip), vehicle: Klucel (hydroxypropylcellulose) (HPC) 90 % of control

C/C=C(/C)N(C(C)=O)N(C(C)=O)c1ccc([N+](=O)[O-])cc1[N+](=O)[O-]
inactive: [1] 100 % of control | [2] 89 % of control | [4] 89 % of control
